# Test results as given in patent publication US20150258129A1, “Method for Increasing the Activity of Lysosomal Enzymes” (Mount Sinai School of Medicine of New York University, priority 1998, published 2015).
# Positions count from the first letter of the chain named. pIC50, pKi: −log10 of the molar value. Like-named read-outs stand apart in the source and are kept apart here.
# Tests used:
# human lysosomal α-Gal A = target: T1, human lysosomal α-Gal A (Homo sapiens, UniProt P06280); assay: In vitro inhibition of α-Gal A (recombinant, expressed in Sf-9 insect cells); format: biochemical; conditions: for pIC50 / pKi: p-nitrophenyl-α-D-galactopyranoside as substrate; for pIC50: pH 4.5; for reduction of inhibitory potential / affinity for α-Gal A relative to DGJ: compared with DGJ; for pKi: read-out: Ki for α-Gal A, from the slope of Lineweaver-Burk plots
# T1 construct: made in house; host or cells: Sf-9 insect cells, recombinant baculovirus
# T1 sequence (P06280 32-429): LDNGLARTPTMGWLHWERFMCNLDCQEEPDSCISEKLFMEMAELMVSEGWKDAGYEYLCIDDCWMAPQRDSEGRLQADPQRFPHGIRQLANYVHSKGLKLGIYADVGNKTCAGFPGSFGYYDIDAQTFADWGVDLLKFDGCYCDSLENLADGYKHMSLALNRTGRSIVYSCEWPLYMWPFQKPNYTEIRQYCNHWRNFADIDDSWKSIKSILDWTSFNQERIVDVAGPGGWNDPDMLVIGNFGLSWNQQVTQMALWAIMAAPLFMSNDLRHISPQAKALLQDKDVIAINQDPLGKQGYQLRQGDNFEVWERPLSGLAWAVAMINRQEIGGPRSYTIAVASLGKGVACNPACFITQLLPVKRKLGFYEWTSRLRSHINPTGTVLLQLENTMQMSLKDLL
# mutant α-Gal A (R301Q) = target: T2, mutant α-Gal A (R301Q) (Homo sapiens, UniProt P06280, R301Q); assay: Intracellular enhancement of α-Gal A activity in Fabry lymphoblasts; format: cell-based; design: endogenous in cells; host or cells: Epstein-Barr virus-transformed lymphoblasts from a Fabry patient (R301Q); conditions: for intracellular α-Gal A activity in Fabry lymphoblasts (summary): concentration ranges of 10-1000 μM; for increase of α-Gal A enzyme activity in R301Q lymphoblasts: inhibitor at 100 μM; for enhancement of α-Gal A activity in R301Q lymphoblasts: inhibitor at 1000 μM
# T2 sequence (P06280 32-429 R301Q): T1 sequence (P06280 32-429) with R270Q
# Description: FIG. 4B depicts results in which each inhibitor was added to the culture medium of R301Q lymphoblasts at a concentration of 100 μM. Cells were subsequently incubated for 4 days. After being washed twice with phosphate-buffered saline, the intracellular enzyme activity was determined with 4-MU-α-Gal as the substrate.
# R301Q lymphoblasts were cultured with DGJ (4) ([…]), α-allo-HNJ (9) (▪), α-galacto-HNJ (10) (▴), or β-1-C-butyl-DGJ (16) (♦) at 1-1000 μM for 4 days before being collected for enzyme assay.
# In FIG. 6B, R301Q lymphoblasts were cultured with calystegine B2 (18) and the results are shown therein. In FIG. 6C, R301Q lymphoblasts were cultured with N-methyl calystegine A3 (19) and the results are shown therein. In FIG. 6D R301Q lymphoblasts were cultured with N-methyl calystegine B2 (20) at 100-1000 μM for 4 days before being collected for enzyme assay and the results are shown therein.
# The Epstein-Barr virus-transformed lymphoblast lines from a normal adult and a Fabry patient with R301Q mutation in α-Gal A (38) were cultured in RPMI-1640 medium (Nissui Pharmaceutical Co., Tokyo, Japan) supplemented with 10% fetal calf serum (FCS) at 37° C. under 5% CO2. Human fibroblasts from Gaucher and GM1-gangliosidosis patients were cultured in McCoy 5A medium supplemented with 10% FCS at 37° C. under 5% CO2.
# Cells were cultured in the presence or absence of inhibitor for 4 days. After being washed twice with phosphate-buffered saline (PBS), the cells were harvested and homogenized in 200 μl of H2O, and 10 μl of the supernatant obtained by centrifugation at 10,000 g was incubated at 37° C. with 50 μl of the substrate solution composed by 6 mM 4-methylumbelliferyl α-D-galactoside (4-MU-α-Gal) and 90 mM N-acetylgalactosamine in 0.1 M citrate buffer (pH 4.5) for enzyme assay. One unit of intracellular enzyme activity was defined as one nmol of 4-methylumbelliferone released per hour at 37° C.
# [1] = target: human β-glucocerebrosidase (Homo sapiens, UniProt P04062); assay: In vitro inhibition of human β-glucocerebrosidase; format: biochemical; conditions: for pIC50: 0.1M citrate buffer (pH 5.2), 4-MU-β-Glu as substrate
# [2] = target: T3, glucocerebrosidase (β-Glu), N370S/N370S (Homo sapiens, UniProt P04062, N409S); assay: Intracellular enhancement of β-Glu activity in Gaucher fibroblasts (N370S/N370S); format: cell-based; conditions: for intracellular β-Glu activity in Gaucher fibroblasts (summary): concentration ranges of 0.05-100 μM
# T3 construct: endogenous in cells; host or cells: human Gaucher patient fibroblasts, genotype N370S/N370S
# T3 sequence (P04062 40-536 N409S): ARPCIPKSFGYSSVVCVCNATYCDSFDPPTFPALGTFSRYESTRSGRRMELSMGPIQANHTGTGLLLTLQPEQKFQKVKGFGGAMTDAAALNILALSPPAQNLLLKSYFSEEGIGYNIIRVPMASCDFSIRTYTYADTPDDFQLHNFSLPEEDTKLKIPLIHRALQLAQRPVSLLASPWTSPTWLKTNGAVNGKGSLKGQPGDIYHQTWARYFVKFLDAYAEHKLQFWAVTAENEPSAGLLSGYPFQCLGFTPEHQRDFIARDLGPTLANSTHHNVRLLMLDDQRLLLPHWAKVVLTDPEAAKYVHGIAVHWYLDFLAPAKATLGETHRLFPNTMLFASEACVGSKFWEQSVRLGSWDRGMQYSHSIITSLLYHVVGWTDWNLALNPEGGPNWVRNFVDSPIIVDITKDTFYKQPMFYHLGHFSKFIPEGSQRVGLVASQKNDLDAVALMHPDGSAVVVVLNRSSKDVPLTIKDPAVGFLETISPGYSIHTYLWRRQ
# [3] = IC30 and (Ki)*: IC50 values (inhibitor concentration giving 50% inhibition) for α-Gal A
# [4] = read-out: IC30 and (Ki)*: IC50 values (inhibitor concentration giving 50% inhibition) for α-Gal A
# [5] = N370S/N370S, compound at 10 μM, 5 days
# [6] = N370S/N370S, compound at 100 μM, 5 days
# Chain of human β-glucocerebrosidase (P04062 40-536): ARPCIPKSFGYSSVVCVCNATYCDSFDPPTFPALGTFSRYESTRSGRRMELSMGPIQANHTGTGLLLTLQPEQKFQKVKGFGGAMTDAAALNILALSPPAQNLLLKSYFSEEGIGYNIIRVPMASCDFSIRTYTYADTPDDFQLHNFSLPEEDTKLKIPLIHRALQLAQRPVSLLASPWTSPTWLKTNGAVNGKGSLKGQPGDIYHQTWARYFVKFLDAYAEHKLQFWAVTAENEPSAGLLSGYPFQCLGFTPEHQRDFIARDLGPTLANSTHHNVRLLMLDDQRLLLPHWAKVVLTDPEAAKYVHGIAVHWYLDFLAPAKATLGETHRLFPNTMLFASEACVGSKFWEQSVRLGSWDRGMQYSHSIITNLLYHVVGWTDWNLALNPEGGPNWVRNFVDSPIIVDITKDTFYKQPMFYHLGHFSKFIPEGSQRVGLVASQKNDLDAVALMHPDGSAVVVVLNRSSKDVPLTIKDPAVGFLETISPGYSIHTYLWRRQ
molecule,measurement,setting,value
"OCC1NCC(O)C(O)C1O (stereo not drawn) [compound 2, 1-Deoxymannojirimycin]",inhibition of α-Gal A (in words),human lysosomal α-Gal A,no appreciable inhibition even at 1000 μM
"OCC1NCC(O)C(O)C1O (stereo not drawn) [compound 3, 1-Deoxy-3-epi-nojirimycin]",inhibition of α-Gal A (in words),human lysosomal α-Gal A,no appreciable inhibition even at 1000 μM
"OC[C@H]1NC[C@H](O)[C@H](O)[C@H]1O [compound 5, 1-deoxy-3,4-diepi-nojirimycin]",inhibition of α-Gal A (in words),human lysosomal α-Gal A,no appreciable inhibition even at 1000 μM
"OCC1NCCC(O)C1O (stereo not drawn) [compound 6, 1,2-dideoxy-galactonojirimycin]",pIC50,human lysosomal α-Gal A; [3],3.60
same,reduction of inhibitory potential / affinity for α-Gal A relative to DGJ,human lysosomal α-Gal A,over 6000 fold
"OCC1NC(CO)C(O)C(O)C1O (stereo not drawn) [compound 7, α-Homonojirimycin]",inhibition of α-Gal A (in words),human lysosomal α-Gal A,not an inhibitor
same,pIC50,human lysosomal α-Gal A; [3],< 3.00
"OCC1NC(CO)C(O)C(O)C1O (stereo not drawn) [compound 8, α-homomannojirimycin]",inhibition of α-Gal A (in words),human lysosomal α-Gal A,weak inhibitor
same,pIC50,human lysosomal α-Gal A; [3],3.33
"OC[C@H]1N[C@H](CO)[C@@H](O)C(O)[C@H]1O (stereo partly drawn) [compound 9, α-homoallonojirimycin]",intracellular α-Gal A activity in Fabry lymphoblasts (summary),mutant α-Gal A (R301Q),effectively increase
same,increase of α-Gal A enzyme activity in R301Q lymphoblasts,mutant α-Gal A (R301Q); 4 days,2.4 fold
same,enhancement of α-Gal A activity in R301Q lymphoblasts,mutant α-Gal A (R301Q); 4 days,3.9 fold
same,inhibition mode toward α-Gal A (Lineweaver-Burk plots),human lysosomal α-Gal A,competitive inhibitors
same,pKi,human lysosomal α-Gal A,5.59
same,pIC50,human lysosomal α-Gal A; [4],5.37
"OC[C@H]1N[C@H](CO)[C@H](O)C(O)[C@H]1O (stereo partly drawn) [compound 10, α-Homogalactonojirimycin]",intracellular α-Gal A activity in Fabry lymphoblasts (summary),mutant α-Gal A (R301Q),effectively increase
same,increase of α-Gal A enzyme activity in R301Q lymphoblasts,mutant α-Gal A (R301Q); 4 days,5.2 fold
same,enhancement of α-Gal A activity in R301Q lymphoblasts,mutant α-Gal A (R301Q); 4 days,12.5 fold
same,inhibition mode toward α-Gal A (Lineweaver-Burk plots),human lysosomal α-Gal A,competitive inhibitors
same,reduction of inhibitory potential / affinity for α-Gal A relative to DGJ,human lysosomal α-Gal A,approximately 4 fold
same,pKi,human lysosomal α-Gal A,6.77
same,pIC50,human lysosomal α-Gal A; [4],6.68
"CN1CC(O)C(O)C(O)C1CO (stereo not drawn) [compound 11, N-Methyl-1-deoxygalactonojirimycin]",pIC50,human lysosomal α-Gal A; [3],4.02
"CCN1CC(O)C(O)C(O)C1CO (stereo not drawn) [compound 12, N-Ethyl-1-deoxygalactonojirimycin]",pIC50,human lysosomal α-Gal A; [3],3.51
"CCCN1CC(O)C(O)C(O)C1CO (stereo not drawn) [compound 13, N-Propyl-1-deoxygalactonojirimycin]",pIC50,human lysosomal α-Gal A; [3],3.52
"OCCN1CC(O)C(O)C(O)C1CO (stereo not drawn) [compound 15, N-Hydroxyethyl-1-deoxygalactonojirimycin]",pIC50,human lysosomal α-Gal A; [3],3.28
"CN1C2CCC1(O)C(O)C(O)C2 (stereo not drawn) [compound 19, N-methyl calystegine A3]",intracellular α-Gal A activity in Fabry lymphoblasts (summary),mutant α-Gal A (R301Q),effectively increase
same,α-Gal A activity in R301Q lymphoblasts with increasing concentration of calystegine compound,"mutant α-Gal A (R301Q); range 100-1000 μM, 4 days, FIG. 6",elevated with increasing concentration
"O[C@@H]1[C@@H](O)C[C@]2(O)CC[C@H]1N2 [compound 22, calystegine A5]",pIC50,[1],4.51
"O[C@@H]1C[C@]2(O)N[C@H]1C[C@@H](O)[C@@H]2O [compound 23, calystegine B1]",pIC50,[1],5.60
same,intracellular β-Glu activity in Gaucher fibroblasts (summary),[2],effectively enhance
"O[C@@H]1[C@@H](O)[C@H]2CC[C@](O)(N2)[C@@H]1O [compound 24, calystegine B3]",pIC50,[1],4.12
"O[C@@H]1[C@H](O)[C@H]2CC[C@](O)(N2)[C@H]1O [compound 25, calystegine B4]",pIC50,[1],4.09
"OC1CC2(O)NC1C(O)C(O)C2O (stereo not drawn) [compound 26, calystegine C1]",pIC50,[1],5.60
same,intracellular β-Glu activity in Gaucher fibroblasts (summary),[2],effectively enhance
"OC[C@H]1NC[C@@H](O)[C@@H]1O [compound 28, 1,4-dideoxy-1,4-imino-D-arabinitol]",pIC50,[1],3.80
"CCCCN1C[C@H](CO)[C@@H](O)[C@H](O)C1 [compound 34, N-Butyl-isofagomine]",pIC50,[1],4.36
same,elevation of residual β-Glu activity in Gaucher cells,[2]; [5],73%
same,elevation of residual β-Glu activity in Gaucher cells,[2]; [6],56%
same,intracellular β-Glu activity in Gaucher fibroblasts (summary),[2],effectively enhance
"OCC1CN(CCCC2CCCCC2)CC(O)C1O (stereo not drawn) [compound 35, N-(3-cyclohexylpropyl)-isofagomine]",pIC50,[1],4.00
same,elevation of residual β-Glu activity in Gaucher cells,[2]; [5],106%
same,elevation of residual β-Glu activity in Gaucher cells,[2]; [6],47%
same,intracellular β-Glu activity in Gaucher fibroblasts (summary),[2],effectively enhance
"OCC1CN(CCCc2ccccc2)CC(O)C1O (stereo not drawn) [compound 36, N-(3-phenylpropyl)-isofagomine]",pIC50,[1],4.16
same,elevation of residual β-Glu activity in Gaucher cells,[2]; [5],50%
same,elevation of residual β-Glu activity in Gaucher cells,[2]; [6],54%
same,intracellular β-Glu activity in Gaucher fibroblasts (summary),[2],effectively enhance
"CC(C)=CCC/C(C)=C\CC/C(C)=C/CN1CC(O)C(O)C(CO)C1 (stereo not drawn) [compound 37, N-[(2E,6Z,10Z)-3,7,11-trimethyldodecatrienyl]-isofagomine]",pIC50,[1],5.82
same,increase in potency against β-Glu compared with the 4 carbon chain compound,[1]; compared with compound 32 (so in the source),30 fold
same,elevation of residual β-Glu activity in Gaucher cells,[2]; [5],43%
same,decrease of residual β-Glu activity in Gaucher cells,[2]; [6],53%
same,intracellular β-Glu activity in Gaucher fibroblasts (summary),[2],effectively enhance
DNJ bisulfite [compound 32],pIC50,[1],4.55
